Laboratory results taken from US20070213324A1 (priority 2006, published 2007).

How the values were obtained:
[1] = system: pain produced by a sprained ankle; assay: Phase II evaluation of pain by visual analogue scale (VAS); type: in vivo, human; details: for time from administration to analgesic effect (VAS, significant versus placebo): carisoprodol 200 mg / meloxicam 15 mg, sprained ankle
[2] = cited from earlier work
[3] = system: platelet aggregation induced by collagen or arachidonic acid; details: cited from earlier work
[4] = system: production of thromboxane in platelets; details: cited from earlier work
plasma proteins = details: cited from earlier work
[5] = cited from earlier work; remark: listed apart in the source
[6] = system: functional recovery of patients with a sprained ankle; assay: Phase II functional recovery
[7] = in vivo
[8] = Phase I bioavailability study, single dose and steady state; details: carisoprodol, any condition
Method: Sixty healthy male volunteers participated in the study and were divided into four treatment groups. […] The study was prospective, single-blind, parallel, longitudinal, and comparative with a placebo and with the components of the combination administered separately, with randomized distribution into 4 groups.
A pharmacokinetic study was conducted on day 1 and day 14 so that bioavailability could be clearly identified for single dose and for multiple doses, and so that the bioequivalence of the combined product could be compared to the individual products.

## Cc1cnc(NC(=O)C2=C(O)c3ccccc3S(=O)(=O)N2C)s1 [Meloxicam, 4-hydroxy-2-methyl-N-(5-methyl-2-thiazolyl)-2H-1,2-benzothiazine-3-carboxamide-1,1-dioxide]
[1]
  time from administration to analgesic effect (VAS, significant versus placebo): up to 360 minutes
[1]; listed as meloxicam
  time from administration to analgesic effect (VAS, significant versus placebo): 360 min
[1]; minute 360
  p versus placebo, VAS: 0.021
[2]; methanol
  solubility in methanol: very slightly soluble
[2]; strong acids and bases
  solubility in strong acids and bases: higher solubility
[2]; water
  solubility in water: practically insoluble in water
[3]
  inhibition of platelet aggregation: does not inhibit
[4]
  production of thromboxane in platelets: significantly reduce
Plasma proteins
  bound to plasma proteins: 99.5%
[5]; after administration, enterohepatic circulation
  time of second maximum concentration peak: 12 to 14 h
[5]; days of dosage
  time to steady state: 5 days
[5]; in vivo
  effect of food intake on absorption: not altered
[5]; orally
  absorbed after administration: 89%
[6]; 1440 minutes
  p versus placebo, functional recovery: 0.037
[6]; in vivo
  time at which functional recovery is statistically different from placebo: 24 h
[6]; sprained ankle
  time from administration to functional recovery (significant versus placebo): 1440 min

## CCCC(C)(COC(N)=O)COC(=O)NC(C)C (stereo not shown) [Carisoprodol]
[7]
  blood pressure: decrease in blood pressure
  changes in the physiological tests (reaction time, awareness): did not produce any changes
  sedative effect: MINIMENTAL test before versus after administration: no significant differences
[5]; in vivo
  half-life: 8 h
  time of initial musculoskeletal relaxant effect: 30 to 45 min
[8]
  bioequivalence, combined versus on its own: no bioequivalence in any condition
